According to BigSolDB 2.1:

CC[C@H](C)C(=O)O[C@H]1C[C@@H](C)C=C2C=C[C@H](C)[C@H](CC[C@@H]3C[C@@H](O)CC(=O)O3)[C@H]21
solubility (mole fraction)
Conditions	in 2-butanone	in acetone	in ethyl acetate	in isobutyl acetate	in isopropyl acetate	in methyl acetate	in n-butyl acetate	in n-propyl acetate	in sec-butyl acetate	in tert-butyl acetate
285.1 K	0.00752	0.00831	0.00417	0.00345	0.00335	0.00309	0.00407	0.00395	0.00365	0.00275
288.3 K	0.00878	0.00936	0.0047	0.00383	0.00372	0.0034	0.00452	0.00438	0.00401	0.00314
291.2 K	0.00918	0.0104	0.00517	0.00422	0.00412	0.00376	0.00494	0.00481	0.00446	0.00346
294.6 K	0.0111	0.0118	0.00586	0.0047	0.00459	0.00417	0.00557	0.00544	0.005	0.00386
297.2 K	0.0115	0.013	0.00656	0.00504	0.00497	0.00447	0.00611	0.00587	0.00545	0.0042
300.3 K	0.0132	0.0146	0.00706	0.0057	0.00553	0.00515	0.00679	0.00658	0.00606	0.00479
303.1 K	0.0147	0.0163	0.00778	0.00627	0.00606	0.00543	0.00748	0.00724	0.00666	0.0051
306.3 K	0.0175	0.0183	0.0087	0.00702	0.00677	0.00619	0.00836	0.00803	0.00745	0.00569
309.4 K	0.0197	0.0206	0.00967	0.00777	0.00756	0.00674	0.00931	0.00901	0.0083	0.00638
312.2 K	0.0219	0.0228	0.0108	0.00864	0.00832	0.00746	0.0103	0.00997	0.00915	0.00693
